Experimental data from ChEMBL document CHEMBL3632482, “Nitrogen Oxide Inhibitory Trimeric and Dimeric Carbazole Alkaloids from Murraya tetramera” (J Nat Prod, 2015).

Key:
[1] = Cytotoxicity against mouse BV2 cells assessed as cell viability at 40 uM after 24 hrs by MTT assay relative to control; format: cell-based, BV-2; conditions: read-out: Activity
[2] = Antiinflammatory activity in mouse BV2 cells assessed as inhibition of LPS-stimulated nitric oxide production after 24 hrs by Griess assay; format: functional, cell-based; conditions: BV-2, 24 h
[3] = Cytotoxicity against mouse BV2 cells assessed as effect on cell viability after 24 hrs by MTT assay; format: cell-based; conditions: bv-2, 24 h
[4] = Antiinflammatory activity in mouse BV2 cells assessed as inhibition of LPS-stimulated nitric oxide production at 40 uM after 24 hrs by Griess assay relative to control; format: functional; conditions: BV-2, 24 h

| Structure (SMILES) | IC50 [2] [µM] | viability at 24 h, 40 µM [1] [%] | Activity [3] | inhibition at 40 µM [4] [%] |
| --- | --- | --- | --- | --- |
| COc1cc(Cc2ccc3[nH]c4c(OC)c(O)c(C)cc4c3c2)cc2c1[nH]c1ccccc12 |  | < 80 |  |  |
| COc1c(O)c(C)cc2c3ccccc3n(Cc3ccc4[nH]c5ccccc5c4c3)c12 |  | < 80 |  |  |
| COc1ccc2c([nH]c3c(-c4c(O)c(C)cc5c4[nH]c4ccccc45)c(O)c(C)cc32)c1C=O |  | < 80 |  |  |
| O=c1c(O)c(-c2ccc(O)c(O)c2)oc2cc(O)cc(O)c12 [QUERCETIN] | 17.4 |  |  |  |
| COc1cc(Cc2c(O)c(C)cc3c2[nH]c2ccccc23)cc2c1[nH]c1ccccc12 |  | < 80 |  |  |
| COc1cc(Cn2c3ccccc3c3cc(C)c(O)c(OC)c32)cc2c1[nH]c1ccccc12 |  | < 80 |  |  |
| COn1c2ccccc2c2cc(COCc3ccc4c(c3)c3ccccc3n4Cc3ccc4c(c3)c3ccccc3n4OC)ccc21 |  |  | Non-toxic | < 20 |
| COc1ccc2c([nH]c3c(-c4c(O)c(C)cc5c4[nH]c4c(C=O)c(OC)ccc45)c(O)c(C)cc32)c1C=O |  | < 80 |  |  |
| COc1cc(Cn2c3ccccc3c3cc(C)c(O)cc32)cc2c1[nH]c1ccccc12 |  | < 80 |  |  |

The next lines start with results.

| IC50 [2] [µM] | Structure (SMILES) | viability at 24 h, 40 µM [1] [%] | Activity [3] | inhibition at 40 µM [4] [%] |
| --- | --- | --- | --- | --- |
| 18.6 | COc1cc(Cc2c(C)cc(OC)c3[nH]c4ccccc4c23)cc2c1[nH]c1ccccc12 |  | Non-toxic |  |
| 26.7 | COc1cc(C)c(Cc2ccc3[nH]c4ccccc4c3c2)c2c1[nH]c1ccccc12 |  | Non-toxic |  |
| 11.4 | COc1cc(Cc2c(C)cc3c([nH]c4ccccc43)c2OC)cc2c1[nH]c1ccccc12 |  | Non-toxic |  |
| 11.2 | COn1c2ccccc2c2cc(COCc3ccc4c(c3)c3ccccc3n4OC)ccc21 |  | Non-toxic |  |
| 27.2 | COn1c2ccccc2c2cc(COCc3ccc4c(c3)c3cc(Cc5ccc6c(c5)c5ccccc5n6OC)ccc3n4OC)ccc21 |  | Non-toxic |  |
| 38.5 | COc1cc(Cn2c3ccccc3c3cc(C=O)cc(OC)c32)cc2c1[nH]c1ccccc12 |  | Non-toxic |  |
| 21.9 | COn1c2ccccc2c2cc(COCc3ccc4[nH]c5ccccc5c4c3)ccc21 |  | Non-toxic |  |
| 17.9 | COc1cc(Cn2c3ccccc3c3cc(C=O)ccc32)cc2c1[nH]c1ccccc12 |  | Non-toxic |  |
| 19.3 | COc1cc(Cn2c3ccccc3c3cc(CO)cc(OC)c32)cc2c1[nH]c1ccccc12 |  | Non-toxic |  |
